The results in this text go back to paper PMC6792352, “Limited Chemical Structural Diversity Found to Modulate Thyroid Hormone Receptor in the Tox21 Chemical Library” (Environmental Health Perspectives, 2019).

Counter-ions that a name gives are not always drawn.

Broadly, the CC50 is the concentration giving 50% cytotoxicity. Higher therefore signals better tolerance by the cells.

The nature of the data set: in vitro. Conditions: rat, gh3-tre-luc cells.

For `CC1(C)C2CC[C@]3(C)[C@H](C(=O)C=C4[C@@H]5C[C@@](C)(C(=O)O)CC[C@]5(C)CC[C@]43C)[C@@]2(C)CC[C@@H]1O[C@H]1O[C@H](C(=O)O)[C@@H](O)[C@H](O)[C@H]1O[C@@H]1O[C@H](C(=O)O)[C@@H](O)[C@H](O)[C@H]1O` (stereo partly shown) [Glycyrrhizic acid, monosodium salt], under “AC50 (uM) modified / 1000”, the CC50 at 24 h is > 50 µM. Still for that read-out and setting: as for `COc1cccc(OC)c1` [1,3-Dimethoxybenzene], the figure is > 90 µM; as for `CCCCC/C=C\C=C\C(=O)OCC` [Ethyl (2E,4Z)-deca-2,4-dienoate], 29.3 µM. Under “AC50 (uM) modified / 1000”, `CCN(CC)CCN1C(=O)CN=C(c2ccccc2F)c2cc(Cl)ccc21` [Flurazepam] yielded a CC50 at 24 h of 23.1 µM. This CC50 at 24 h and that of the compound before are within 1.5-fold of each other. For the compound `CCC(C)Cl` (stereo not shown) [2-Chlorobutane], the CC50 at 24 h (AC50 (uM) modified / 1000, Tox21_110001=Tox21_200404, viability, 1 nM T3 present, 24 h) was > 90 µM. As to `CC(C)(C#N)Nc1nc(Cl)nc(NC2CC2)n1` [Procyazine], where the note is “AC50 (uM) modified / 1000”, the 50% cytotoxic concentration (CC50) at 24 h was > 90 µM.

`CC(=O)OCCN(CCOC(C)=O)c1ccc(N=Nc2ccc([N+](=O)[O-])cc2C#N)cc1` [Disperse Red 82]: the midpoint of cytotoxicity (AC50 (uM) modified / 1000), the CC50 at 24 h, lay at 54 µM. Regarding `C=C[Si]1(C)O[Si](C)(C=C)O[Si](C)(C=C)O[Si](C)(C=C)O1` (stereo not shown) [1,3,5,7-Tetramethyl-1,3,5,7-tetravinylcyclotetrasiloxane], the CC50 at 24 h (AC50 (uM) modified / 1000, Tox21_110001=Tox21_301527, viability, 1 nM T3 present, 24 h) is > 90 µM. In the case of `CCCCC(CC)COC(=O)CCCCC(=O)OCC(CC)CCCC` (stereo not shown) [Bis(2-ethylhexyl)hexanedioate], the CC50 at 24 h (AC50 (uM) modified / 1000) was > 90 µM. With `CCCCNc1c(C(=O)OCC)c(C)nc2c1cnn2CC` [Tracazolate hydrochloride], the CC50 at 24 h (AC50 (uM) modified / 1000) is > 50 µM.

Consider `O=C(O)c1ccc(O)c(O)c1` [3,4-Dihydroxybenzoic acid], for which the CC50 at 24 h (AC50 (uM) modified / 1000) was > 90 µM.

In the case of `O=C(O)c1cn(-c2ccc(F)cc2)c2cc(N3CCNCC3)c(F)cc2c1=O` [Sarafloxacin hydrochloride], the CC50 at 24 h (AC50 (uM) modified / 1000) is > 50 µM. The same measure, in the same setting: the same measure for `C=CCSSCC=C` [Diallyl disulfide]: > 90 µM. For `O=c1n(Cl)c(=O)n(Cl)c(=O)n1Cl` [Symclosene], the CC50 at 24 h runs as follows: (AC50 (uM) modified / 1000, Tox21_110001=Tox21_112103, viability, 1 nM T3 present, 24 h) > 50 µM; (AC50 (uM) modified / 1000, Tox21_110001=Tox21_300858, viability, 1 nM T3 present, 24 h) > 90 µM.

With `O=C(O)CNC(=O)c1ccccc1` [Hippuric acid], the cytotoxic concentration (CC50) at 24 h (AC50 (uM) modified / 1000) is > 50 µM.

As for `CCN1CN(CC)CN(CC)C1` [1,3,5-Triethylhexahydro-s-triazine], the CC50 at 24 h (AC50 (uM) modified / 1000) is > 90 µM. Same read-out and setting: as for `ClCC=CCCl` [1,4-Dichloro-2-butene], the figure is > 90 µM. Regarding `CCO[C@@H](Cc1ccc(OCCc2ccc(OS(C)(=O)=O)cc2)cc1)C(=O)O` [Tesaglitazar], the half-maximal cytotoxic concentration (CC50) at 24 h (AC50 (uM) modified / 1000) was > 50 µM. The same measure, in the same setting: as for `CN(C)CCc1c[nH]c2cccc(O)c12` [Psilocin], the figure is > 90 µM; as for `CCN(CC)CC#CCOC(=O)C(O)(c1ccccc1)C1CCCCC1` (stereo not shown) [Oxybutynin chloride], 15.3 µM; as for `Nc1nc(N)c2nc(-c3ccccc3)c(N)nc2n1` [Triamterene], > 90 µM.

Consider `Cc1c(Cl)cccc1Cl` [2,6-Dichlorotoluene], for which the cytotoxic concentration (CC50) at 24 h (AC50 (uM) modified / 1000) was > 90 µM. Regarding `CC(C)(N)C#N` [2-Amino-2-methylpropionitrile], the cytotoxic concentration (CC50) at 24 h (AC50 (uM) modified / 1000) is > 90 µM.

On to `NC[C@H]1O[C@H](O[C@H]2[C@H](O)[C@@H](O[C@H]3O[C@H](CO)[C@@H](O)[C@H](N)[C@H]3O)[C@H](N)C[C@@H]2N)[C@H](N)C[C@@H]1O` [Tobramycin], for which, under “AC50 (uM) modified / 1000”, the CC50 at 24 h was > 20 µM. Take `CC(C)CC(C)(N)C#N` (stereo not shown) [2-Amino-2,4-dimethylpentanenitrile]: the CC50 at 24 h (AC50 (uM) modified / 1000) is > 90 µM. Turning to `CNC(=O)OCc1cccc(COC(=O)NC)n1` [Pyricarbate], the 50% cytotoxic concentration (CC50) at 24 h (AC50 (uM) modified / 1000) was > 50 µM. Still for that read-out and setting: the same measure for `CCOc1cc([N+](=O)[O-])c(OCC)cc1N1CCOCC1` [4-(2,5-Diethoxy-4-nitrophenyl)morpholine]: > 90 µM; for `NCCCN1CCN(CCCN)CC1` [1,4-bis(3-Aminopropyl)piperazine]: > 90 µM. For the compound `CN(C)CCN(Cc1ccc(Cl)cc1)c1ccccn1` [Chloropyramine hydrochloride], the midpoint of cytotoxicity (AC50 (uM) modified / 1000), the CC50 at 24 h, lay at 10.2 µM.

As for `O=C(O)c1cccnc1C(=O)O` [Quinolinic acid], the CC50 at 24 h (AC50 (uM) modified / 1000) was > 90 µM. For `COC(=O)Nc1cccc(OC(=O)Nc2cccc(C)c2)c1` [Phenmedipham], the CC50 at 24 h (AC50 (uM) modified / 1000, Tox21_110001=Tox21_201295, viability, 1 nM T3 present, 24 h) was > 90 µM.

With `CN1CCC(=C2c3ccccc3CCc3sccc32)CC1` [Pizotyline], half-maximal cytotoxicity (AC50 (uM) modified / 1000) (CC50 at 24 h) was put at 10.6 µM. In turn, `CN1C[C@H](C(=O)N[C@]2(C)O[C@@]3(O)[C@@H]4CCCN4C(=O)[C@H](Cc4ccccc4)N3C2=O)C[C@@H]2c3cccc4[nH]cc(c34)C[C@H]21` [Dihydroergotamine] displayed a CC50 at 24 h (AC50 (uM) modified / 1000) of 19.3 µM. This CC50 at 24 h lies about 1.8-fold higher than the previous one. The same measure, in the same setting: the same measure for `CC(C)CCCCCCOC(=O)CCCCC(=O)OCCCCCCC(C)C` [Hexanedioic acid, diisononyl ester]: > 90 µM. With `Cc1ccccc1S(=O)(=O)O` [Sodium 2-methylbenzenesulfonate], the CC50 at 24 h (AC50 (uM) modified / 1000) was > 100 µM.

Turning to `NS(=O)(=O)c1cc(C(=O)O)cc(N2CCCC2)c1Oc1ccccc1` [Piretanide], the CC50 at 24 h (AC50 (uM) modified / 1000) was > 20 µM. Still for that read-out and setting: the same measure for `CO[C@H]1C[C@@H]2CC[C@@H](C)[C@@](O)(O2)C(=O)C(=O)N2CCCC[C@H]2C(=O)O[C@H]([C@H](C)C[C@@H]2CC[C@@H](OC(=O)C(C)(CO)CO)[C@H](OC)C2)CC(=O)[C@H](C)/C=C(\C)[C@@H](O)[C@@H](OC)C(=O)[C@H](C)C[C@H](C)/C=C/C=C/C=C/1C` [Temsirolimus]: > 50 µM.

Turning to `CN1C(=O)CN=C(c2ccccc2)c2cc([N+](=O)[O-])ccc21` [Nimetazepam], for the setting “AC50 (uM) modified / 1000”, the CC50 at 24 h is > 50 µM.

With `CC(S)C(C)S` (stereo not shown) [2,3-Butanedithiol], the half-maximal cytotoxic concentration (CC50) at 24 h (AC50 (uM) modified / 1000) was > 100 µM. On the same count and under the same terms, as for `COC(=O)c1ccccc1OC` [Methyl 2-methoxybenzoate], the figure is > 90 µM; as for `CC(C)CCCCCCCOC(=O)CCCCC(=O)OCCCCCCCC(C)C` [Diisodecyl hexanedioate], > 100 µM; as for `CC1(C)S[C@@H]2[C@H](NC(=O)C3(N)CCCCC3)C(=O)N2[C@H]1C(=O)O` [Cyclacillin], > 50 µM. The same measure, in the same setting: as for `OCc1cc(C(O)CNCCCCCCOCCCCc2ccccc2)ccc1O` (stereo not shown) [Salmeterol], the figure is 10.6 µM; as for `CC(=O)Nc1ccc(/C=N/NC(N)=S)cc1` [Amithiozone], > 50 µM. Same read-out and setting: as for `C1CCCNCCC1` [Heptamethyleneimine], the figure is > 90 µM; as for `CN1[C@@H]2CC[C@H]1C[C@@H](OC(=O)c1cc(Cl)cc(Cl)c1)C2` [MDL 72222], 35.2 µM; as for `CC(=O)S[C@H](C(=O)N[C@H]1Cc2ccccc2[C@H]2CCC[C@@H](C(=O)O)N2C1=O)C(C)C` [Ilepatril], > 90 µM.

The compound `CCN1CCCC(OC(=O)C(c2ccccc2)c2ccccc2)C1` (stereo not shown) [Piperidolate hydrochloride] came in with a CC50 at 24 h (AC50 (uM) modified / 1000) of 11.6 µM. Take `O=C1[C@@H]2[C@H]3CC[C@H](C3)[C@@H]2C(=O)N1CCCCN1CCN(c2ncccn2)CC1` [Tandospirone]: where the note is “AC50 (uM) modified / 1000”, the CC50 at 24 h is > 50 µM.

In the case of `NC1CCN(c2cccc(Cl)n2)CC1` [SR 57227A hydrochloride], the CC50 at 24 h (AC50 (uM) modified / 1000) amounted to 24.7 µM. The same measure, in the same setting: as for `Nc1ccn([C@@H]2CO[C@H](CO)O2)c(=O)n1` [Troxacitabine], the figure is > 50 µM. The same measure, in the same setting: as for `O=C1Nc2ccc(Cl)cc2[C@@](C#CC2CC2)(C(F)(F)F)O1` [Efavirenz], the figure is 31.4 µM. With `Brc1c(NC2=NCCN2)ccc2nccnc12` [Brimonidine], the CC50 at 24 h (AC50 (uM) modified / 1000) is > 50 µM. For `CCCCCCCC` [Octane], the CC50 at 24 h (AC50 (uM) modified / 1000) was > 90 µM.
